Test results: doi:10.1101/2022.09.03.506457v1 (biorxiv, 2022)

Target: T1, MjFH (MjFHαβ), holo, Fe-S reconstituted (Methanocaldococcus jannaschii, UniProt Q58034+Q58690)
T1 sequence (Q58690 1-285): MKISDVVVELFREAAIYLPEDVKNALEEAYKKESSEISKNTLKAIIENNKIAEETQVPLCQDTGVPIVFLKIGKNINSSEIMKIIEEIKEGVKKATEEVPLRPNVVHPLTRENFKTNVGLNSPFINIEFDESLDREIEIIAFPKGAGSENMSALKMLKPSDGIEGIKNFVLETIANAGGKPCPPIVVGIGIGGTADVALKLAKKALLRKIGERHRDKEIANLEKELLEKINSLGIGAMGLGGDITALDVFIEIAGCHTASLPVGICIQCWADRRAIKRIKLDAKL
T1 sequence (Q58034 1-195): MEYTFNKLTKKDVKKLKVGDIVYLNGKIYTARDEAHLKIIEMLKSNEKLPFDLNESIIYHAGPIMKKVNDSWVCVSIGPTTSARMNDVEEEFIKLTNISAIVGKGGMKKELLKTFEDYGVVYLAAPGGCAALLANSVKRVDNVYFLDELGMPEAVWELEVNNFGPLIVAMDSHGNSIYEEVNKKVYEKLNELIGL
Type: biochemical
Conditions: pH 7.2, 50 mM Tris-HCl, 70 °C

- Km: 2790 ± 397 µM
SMILES: O=C(O)/C=C/C(=O)O [fumarate]
